Source: PubChem BioAssay (NCI)
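Method: 48-hour compound exposure of cells in 96-well plates, five concentrations, linear interpolation of endpoints. GI50 is the concentration that inhibits growth by half. TGI is the concentration that stops growth completely.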

Experiments:
Assay in all cases: NCI-60 cell line screen, 48 h
786-0 renal = system: 786-0 renal
A498 renal = system: A498 renal
A549 NSCLC = system: A549 NSCLC
ACHN renal = system: ACHN renal
BT-549 breast = system: BT-549 breast
CAKI-1 renal = system: CAKI-1 renal
CCRF-CEM leukemia = system: CCRF-CEM leukemia
COLO 205 colon = system: COLO 205 colon
DU-145 prostate = system: DU-145 prostate
EKVX NSCLC = system: EKVX NSCLC
HCC-2998 colon = system: HCC-2998 colon
HCT-116 colon = system: HCT-116 colon
HCT-15 colon = system: HCT-15 colon
HL-60(TB) leukemia = system: HL-60(TB) leukemia
HOP-62 NSCLC = system: HOP-62 NSCLC
HOP-92 NSCLC = system: HOP-92 NSCLC
HS 578T breast = system: HS 578T breast
HT29 colon = system: HT29 colon
IGROV1 ovarian = system: IGROV1 ovarian
K-562 leukemia = system: K-562 leukemia
KM12 colon = system: KM12 colon
LOX IMVI melanoma = system: LOX IMVI melanoma
M14 melanoma = system: M14 melanoma
MALME-3M melanoma = system: MALME-3M melanoma
MCF7 breast = system: MCF7 breast
MDA-MB-231 breast = system: MDA-MB-231 breast
MDA-MB-435 = system: MDA-MB-435
MDA-MB-468 breast = system: MDA-MB-468 breast
MOLT-4 leukemia = system: MOLT-4 leukemia
NCI-H226 lung = system: NCI-H226 lung
NCI-H23 lung = system: NCI-H23 lung
NCI-H460 lung = system: NCI-H460 lung
NCI-H522 lung = system: NCI-H522 lung
NCI/ADR-RES ovarian = system: NCI/ADR-RES ovarian
OVCAR-3 ovarian = system: OVCAR-3 ovarian
OVCAR-4 ovarian = system: OVCAR-4 ovarian
OVCAR-5 ovarian = system: OVCAR-5 ovarian
OVCAR-8 ovarian = system: OVCAR-8 ovarian
PC-3 prostate = system: PC-3 prostate
RPMI-8226 leukemia = system: RPMI-8226 leukemia
RXF 393 renal = system: RXF 393 renal
SF-268 CNS = system: SF-268 CNS
SF-295 CNS = system: SF-295 CNS
SF-539 CNS = system: SF-539 CNS
SK-MEL-2 melanoma = system: SK-MEL-2 melanoma
SK-MEL-28 melanoma = system: SK-MEL-28 melanoma
SK-MEL-5 melanoma = system: SK-MEL-5 melanoma
SK-OV-3 ovarian = system: SK-OV-3 ovarian
SN12C renal = system: SN12C renal
SNB-19 CNS = system: SNB-19 CNS
SNB-75 CNS = system: SNB-75 CNS
SR leukemia = system: SR leukemia
SW-620 colon = system: SW-620 colon
T-47D breast = system: T-47D breast
TK-10 renal = system: TK-10 renal
U251 CNS = system: U251 CNS
UACC-257 melanoma = system: UACC-257 melanoma
UACC-62 melanoma = system: UACC-62 melanoma
UO-31 renal = system: UO-31 renal

SMILES: O=C(COc1ccc(NC(=O)Nc2ccc(Cl)c(Cl)c2)cc1)N=Nc1c(O)[nH]c2ccc(Br)cc12
- TGI (786-0 renal): 920 nM
- GI50 (A498 renal): 1560 nM
- TGI (A498 renal): 3790 nM
- GI50 (A549 NSCLC): 2060 nM
- TGI (A549 NSCLC): 5000 nM
- GI50 (ACHN renal): 2940 nM
- TGI (ACHN renal): 9120 nM
- GI50 (BT-549 breast): 28.8 nM
- TGI (BT-549 breast): 2230 nM
- GI50 (CAKI-1 renal): 2050 nM
- TGI (CAKI-1 renal): 4300 nM
- GI50 (CCRF-CEM leukemia): 812 nM
- TGI (CCRF-CEM leukemia): 6130 nM
- GI50 (COLO 205 colon): 1830 nM
- TGI (COLO 205 colon): 3310 nM
- GI50 (DU-145 prostate): 3070 nM
- TGI (DU-145 prostate): 9520 nM
- GI50 (EKVX NSCLC): 2370 nM
- TGI (EKVX NSCLC): 7060 nM
- GI50 (HCC-2998 colon): 1820 nM
- TGI (HCC-2998 colon): 3890 nM
- GI50 (HCT-116 colon): 166 nM
- TGI (HCT-116 colon): 369 nM
- GI50 (HCT-15 colon): 6130 nM
- TGI (HCT-15 colon): 45500 nM
- GI50 (HL-60(TB) leukemia): 2020 nM
- TGI (HL-60(TB) leukemia): 4660 nM
- GI50 (HOP-62 NSCLC): 2030 nM
- TGI (HOP-62 NSCLC): 3950 nM
- GI50 (HOP-92 NSCLC): 1930 nM
- TGI (HOP-92 NSCLC): 4450 nM
- GI50 (HS 578T breast): 2250 nM
- TGI (HS 578T breast): 6710 nM
- GI50 (HT29 colon): 1860 nM
- TGI (HT29 colon): 3780 nM
- GI50 (IGROV1 ovarian): 1880 nM
- TGI (IGROV1 ovarian): 3920 nM
- GI50 (K-562 leukemia): 1260 nM
- TGI (K-562 leukemia): 6470 nM
- GI50 (KM12 colon): 1950 nM
- TGI (KM12 colon): 4120 nM
- GI50 (LOX IMVI melanoma): 1090 nM
- TGI (LOX IMVI melanoma): 2300 nM
- GI50 (M14 melanoma): 231 nM
- TGI (M14 melanoma): 634 nM
- GI50 (MALME-3M melanoma): 1640 nM
- TGI (MALME-3M melanoma): 3030 nM
- GI50 (MCF7 breast): 2010 nM
- TGI (MCF7 breast): 4710 nM
- GI50 (MDA-MB-231 breast): 1810 nM
- TGI (MDA-MB-231 breast): 3350 nM
- GI50 (MDA-MB-435): 1550 nM
- TGI (MDA-MB-435): 3250 nM
- GI50 (MDA-MB-468 breast): 1750 nM
- TGI (MDA-MB-468 breast): 3460 nM
- GI50 (MOLT-4 leukemia): 629 nM
- TGI (MOLT-4 leukemia): 2690 nM
- GI50 (NCI-H226 lung): 1980 nM
- TGI (NCI-H226 lung): 3860 nM
- GI50 (NCI-H23 lung): 1990 nM
- TGI (NCI-H23 lung): 3990 nM
- GI50 (NCI-H460 lung): 1600 nM
- TGI (NCI-H460 lung): 3540 nM
- GI50 (NCI-H522 lung): 1810 nM
- TGI (NCI-H522 lung): 3620 nM
- GI50 (NCI/ADR-RES ovarian): > 100000 nM
- TGI (NCI/ADR-RES ovarian): > 100000 nM
- GI50 (OVCAR-3 ovarian): 1080 nM
- TGI (OVCAR-3 ovarian): 3130 nM
- GI50 (OVCAR-4 ovarian): 1900 nM
- TGI (OVCAR-4 ovarian): 4100 nM
- GI50 (OVCAR-5 ovarian): 1820 nM
- TGI (OVCAR-5 ovarian): 3890 nM
- GI50 (OVCAR-8 ovarian): 2340 nM
- TGI (OVCAR-8 ovarian): 5420 nM
- GI50 (PC-3 prostate): 1150 nM
- TGI (PC-3 prostate): 3440 nM
- GI50 (RPMI-8226 leukemia): 2190 nM
- TGI (RPMI-8226 leukemia): 6370 nM
- GI50 (RXF 393 renal): 1520 nM
- TGI (RXF 393 renal): 3040 nM
- GI50 (SF-268 CNS): 1630 nM
- TGI (SF-268 CNS): 5150 nM
- GI50 (SF-295 CNS): 1630 nM
- TGI (SF-295 CNS): 3200 nM
- GI50 (SF-539 CNS): 1660 nM
- TGI (SF-539 CNS): 3120 nM
- GI50 (SK-MEL-2 melanoma): 1970 nM
- TGI (SK-MEL-2 melanoma): 4270 nM
- GI50 (SK-MEL-28 melanoma): 1830 nM
- TGI (SK-MEL-28 melanoma): 3430 nM
- GI50 (SK-MEL-5 melanoma): 1700 nM
- TGI (SK-MEL-5 melanoma): 3090 nM
- GI50 (SK-OV-3 ovarian): 2080 nM
- TGI (SK-OV-3 ovarian): 4290 nM
- GI50 (SN12C renal): 1820 nM
- TGI (SN12C renal): 3450 nM
- GI50 (SNB-19 CNS): 2680 nM
- TGI (SNB-19 CNS): 8420 nM
- GI50 (SNB-75 CNS): 1330 nM
- TGI (SNB-75 CNS): 2840 nM
- GI50 (SR leukemia): 2550 nM
- TGI (SR leukemia): 7980 nM
- GI50 (SW-620 colon): 1460 nM
- TGI (SW-620 colon): 3060 nM
- GI50 (T-47D breast): 1960 nM
- TGI (T-47D breast): 4570 nM
- GI50 (TK-10 renal): 2460 nM
- TGI (TK-10 renal): 7790 nM
- GI50 (U251 CNS): 1710 nM
- TGI (U251 CNS): 3390 nM
- GI50 (UACC-257 melanoma): 1790 nM
- TGI (UACC-257 melanoma): 3560 nM
- GI50 (UACC-62 melanoma): 1850 nM
- TGI (UACC-62 melanoma): 3770 nM
- GI50 (UO-31 renal): 11500 nM
- TGI (UO-31 renal): 45900 nM
